Read-outs that look alike come from different tables or passages of the source.
How the values were obtained:
A549 = assay: In vitro anti-proliferative MTT assay, A549; type: cell-based, human; details: for IC50: Homo sapiens; for HillSlope (best-fit value), A549 / LogIC50 (best-fit value), A549: supplement IC50 graph
Experimental: These two cell lines were selected in this test due to the overexpression of EGFR in human lung and colon cancer cell lines[48]^,[49]. The tested cells were reported to have a high expression level of EGFR. […]
(§1) 1.1. In vitro antiproliferative activities
The in vitro antiproliferative activities of all the synthesized compounds against two human […]
evaluated quantitatively as described in the literature, using MTT assay protocol . two […]
proliferative activity was assessed quantitatively as follows.
(§2) Human cancer cell lines were dropped in 96 -well plates at a density of 3-8 × 10^3 cells/well.
Next, the wells were incubated for 12 h in a 5% CO 2 incubator at 37 °C. Then, for each well, the growth medium was exchanged with 0.1 ml of fresh medium containing graded concentrations of the test compounds to be or equal DMSO and incubated for two days. Then 10 μl MTT solution ([…]) was added to each well, and the cells were incubated for additional 4 h. The crystals of MTT-formazan were dissolved in 100 μl of DMSO; the absorbance of each well was measured at 490 nm using an automatic ELISA reader system (TECAN, CHE). The IC 50 values were calculated using the nonlinear regression fitting models (Graph Pad, Prism Version 5). The data represented the mean of three independent experiments in triplicate and were expressed as means ± SD. The […]
(§3) The results were expressed as growth inhibitory concentration (IC50) values and […]

HCT-116 = assay: In vitro anti-proliferative MTT assay, HCT-116; type: cell-based, human; details: for IC50: Homo sapiens, HCT-116, mean of three experiments, read-out: In vitro cytotoxicity IC50, HCT-116; for IC50 / anti-proliferative activity against HCT-116 in words: MTT; for HillSlope (best-fit value), HCT-116 / LogIC50 (best-fit value), HCT-116: supplement IC50 graph
Experimental: The cytotoxic activities of the synthesised compounds were assessed against two human cancer cell lines (lung, A549) and (colon HCT-116) using an MTT assay. These two cell lines were selected in this test due to the overexpression of EGFR in human lung and colon cancer cell lines[48]^,[49]. The tested cells were reported to have a high expression level of EGFR.
In vitro cytotoxicity was carried out for the synthesised compounds against A549, HCT-116, and WI-38 cell lines using the MTT assay protocol[52–55] as described in Supplementary data. […]
as §1
The in vitro antiproliferative activities of all the synthesized compounds against two human tumor cell lines namely, (lung, A549) and (colon HCT-116) and one normal cell line (WI-38) were evaluated quantitatively as described in the literature, using MTT assay protocol . two commercially available drugs (erlotinib) were used in this test as positive controls. The anti-proliferative activity was assessed quantitatively as follows.
as §2
Next, the wells were incubated for 12 h in a 5% CO 2 incubator at 37 °C. Then, for each well, the growth medium was exchanged with 0.1 ml of fresh medium containing graded concentrations of the test compounds to be or equal DMSO and incubated for two days. Then 10 μl MTT solution ([…]) was added to each well, and the cells were incubated for additional 4 h. The crystals of MTT-formazan were dissolved in 100 μl of DMSO; the absorbance of each well was measured at 490 nm using an automatic ELISA reader system (TECAN, CHE). The IC 50 values were calculated using the nonlinear regression fitting models (Graph Pad, Prism Version 5). The data represented the mean of three independent experiments in triplicate and were expressed as means ± SD. The IC50 value was defined as the concentration at which 50% of the cells could survive.
as §3

WI-38 = assay: In vitro cytotoxicity against normal cells (MTT), WI-38; details: supplement graph
Experimental: (§4) Next, the wells were incubated for 12 h in a 5% CO 2 incubator at 37 °C. Then, for each well, the growth medium was exchanged with 0.1 ml of fresh medium containing graded concentrations of the test compounds to be or equal DMSO and incubated for two days. Then 10 μl MTT solution (5 μg/ml) was added to each well, and the cells were incubated for additional 4 h. The crystals of MTT-formazan were dissolved in 100 μl of DMSO; the absorbance of each well was measured at 490 nm using an automatic ELISA reader system (TECAN, CHE). The IC 50 values were calculated using the nonlinear regression fitting models (Graph Pad, Prism Version 5). The data represented the mean of three independent experiments in triplicate and were expressed as means ± SD.

in vitro = details: human, WI-38 normal cells
Experimental: as §4

EGFR^WT = target: T1, EGFR^WT (Homo sapiens, UniProt P00533); assay: EGFR^WT kinase inhibitory assay (HTRF); type: biochemical
T1 construct: purchased Sigma
Experimental: In vitro EGFR inhibitory activity was assessed using a Homogeneous time-resolved fluorescence (HTRF) assay[56] as described in Supplementary data.
4.1.1. EGFRWT and EGFRT790M kinase inhibitory assay […]
against four cancer cell lines were further examined for their inhibitory activities against both […]
Homogeneous time resolved fluorescence (HTRF) assay was applied in this test. EGFRWT, EGFRT790M (Sigma). firstly, the EGFRWT and/or EGFRT790M and their substrates were incubated with the tested compounds in enzymatic buffer for 5 min. […]
the enzymatic reaction. The assay was conducted for 30 min at room temperature. The reaction was stopped by addition of detection reagents which contain EDTA. The detection step continued […]
experiments were performed for each concentration. […]

[1] = A549, MTT, mean of three experiments, read-out: In vitro cytotoxicity IC50, A549
[2] = HTRF, mean of three experiments, read-out: EGFR^WT IC50
[3] = supplement graph, axis Log (nM)
[4] = supplement graph, axis Log (nM), read-out: IC50 (best-fit value of graph), EGFR inhibition

T1 sequence (P00533 25-1210): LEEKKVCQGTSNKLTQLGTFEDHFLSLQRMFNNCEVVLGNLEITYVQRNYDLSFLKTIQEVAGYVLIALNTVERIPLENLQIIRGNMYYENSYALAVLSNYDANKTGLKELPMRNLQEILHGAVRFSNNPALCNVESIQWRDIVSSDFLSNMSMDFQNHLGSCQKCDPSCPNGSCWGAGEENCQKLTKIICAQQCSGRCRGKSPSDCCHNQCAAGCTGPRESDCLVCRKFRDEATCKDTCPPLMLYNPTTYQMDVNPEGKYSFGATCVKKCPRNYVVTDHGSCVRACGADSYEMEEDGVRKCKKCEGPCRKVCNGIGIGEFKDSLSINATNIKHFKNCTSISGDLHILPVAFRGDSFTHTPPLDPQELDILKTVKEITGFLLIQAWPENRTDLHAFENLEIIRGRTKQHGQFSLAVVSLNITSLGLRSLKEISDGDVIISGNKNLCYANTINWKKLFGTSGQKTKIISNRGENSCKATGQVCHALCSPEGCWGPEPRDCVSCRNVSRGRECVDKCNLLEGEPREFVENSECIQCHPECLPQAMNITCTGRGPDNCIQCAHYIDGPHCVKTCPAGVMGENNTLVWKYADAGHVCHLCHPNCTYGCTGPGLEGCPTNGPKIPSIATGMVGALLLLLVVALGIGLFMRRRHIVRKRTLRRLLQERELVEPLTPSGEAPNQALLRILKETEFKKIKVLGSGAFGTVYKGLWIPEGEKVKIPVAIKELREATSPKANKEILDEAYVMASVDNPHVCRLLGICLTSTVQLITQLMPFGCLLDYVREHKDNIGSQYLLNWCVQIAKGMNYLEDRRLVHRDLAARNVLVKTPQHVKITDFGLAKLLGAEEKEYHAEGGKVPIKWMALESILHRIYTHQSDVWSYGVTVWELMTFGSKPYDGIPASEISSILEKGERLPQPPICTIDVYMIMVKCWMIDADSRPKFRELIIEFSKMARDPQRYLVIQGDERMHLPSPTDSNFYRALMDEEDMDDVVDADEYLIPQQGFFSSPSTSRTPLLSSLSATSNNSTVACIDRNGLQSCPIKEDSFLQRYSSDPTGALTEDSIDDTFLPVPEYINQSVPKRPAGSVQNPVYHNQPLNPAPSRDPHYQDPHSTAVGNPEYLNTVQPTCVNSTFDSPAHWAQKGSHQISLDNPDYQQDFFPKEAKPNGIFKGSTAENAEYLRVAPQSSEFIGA

Structure (SMILES)	IC50 (A549; [1]) [µM]	HillSlope (best-fit value), A549 (A549)	LogIC50 (best-fit value), A549 (A549)	IC50 (HCT-116) [µM]	HillSlope (best-fit value), HCT-116 (HCT-116)	LogIC50 (best-fit value), HCT-116 (HCT-116)	anti-proliferative activity against HCT-116 in words (HCT-116)	IC50 (A549; A549, read-out: IC50 (best-fit value of graph), A549) [µM]	HillSlope (best-fit value), WI-38 (WI-38)	LogIC50 (best-fit value), WI-38 (WI-38)	IC50 at 2 days (in vitro) [µM]	IC50 (EGFR^WT; [2]) [nM]	HillSlope (best-fit value), EGFR inhibition (EGFR^WT; supplement graph)	LogIC50 (best-fit value), EGFR inhibition (EGFR^WT; [3])	IC50 (EGFR^WT; [4]) [nM]
c1ccc(Nc2nc(NC3CCCCC3)c3cnn(-c4ccccc4)c3n2)cc1 [Compound 9, N4-Cyclohexyl-N6,1-diphenyl-1H-pyrazolo[3,4-d]pyrimidine-4,6-diamine]	29.1	-0.3708	1.463	39.4	-0.3946	1.595									
COc1ccc(C=NNc2nc(Nc3ccccc3)nc3c2cnn3-c2ccccc2)cc1 [Compound 11a, 4–(2-(4-Methoxybenzylidene)hydrazinyl)-N,1-diphenyl-1H-pyrazolo[3,4-d] pyrimidin-6-amine]	47.7	-0.4514	1.678	46.2	-0.4760	1.664									
CCNC(=S)NNc1nc(Nc2ccccc2)nc2c1cnn2-c1ccccc1 [Compound 13a, N-Ethyl-2–(1-phenyl-6-(phenylamino)-1H-pyrazolo[3,4-d]pyrimidin-4-yl) hydrazine-1-carbothioamide]	43.1	-0.4011	1.635	27	-0.4156	1.432	moderate								
C#Cc1cccc(Nc2ncnc3cc(OCCOC)c(OCCOC)cc23)c1 [Erlotinib, reference compound]	6.77	-0.3354	0.8309	19.2	-0.3370	1.284		6.78	-0.4750	1.528	33.8				
Clc1ccc(C=NNc2nc(Nc3ccccc3)nc3c2cnn3-c2ccccc2)cc1 [Compound 11b, 4–(2-(4-Chlorobenzylidene)hydrazinyl)-N,1-diphenyl-1H-pyrazolo[3,4-d]pyrimidin-6-amine]	75.7	-0.3813	1.879	75.1	-0.5652	1.876									
CCNc1nc(Nc2ccccc2)nc2c1cnn2-c1ccccc1 [Compound 7a, N4-Ethyl-N6,1-diphenyl-1H-pyrazolo[3,4-d]pyrimidine-4,6-diamine]	64.4	-0.4567	1.809	29.6	-0.4339	1.472	moderate								
CC(=NNc1nc(Nc2ccccc2)nc2c1cnn2-c1ccccc1)c1ccc(C)cc1 [Compound 12c, N,1-Diphenyl-4–(2-(1-(p-tolyl)ethylidene)hydrazinyl)-1H-pyrazolo [3,4-d] pyrimidin-6-amine]	28.8	-0.4080	1.459	28.7	-0.4467	1.458	moderate								
CC(=NNc1nc(Nc2ccccc2)nc2c1cnn2-c1ccccc1)c1ccccc1 [Compound 12a, N,1-Diphenyl-4–(2-(1-phenylethylidene)hydrazinyl)-1H-pyrazolo[3,4-d]pyrimidin-6-amine]	13.7	-0.3395	1.137	23.3	-0.4063	1.368						21	-0.3296	1.321	21
NNc1nc(Nc2ccccc2)nc2c1cnn2-c1ccccc1 [Compound 10, 4-Hydrazinyl-N,1-diphenyl-1H-pyrazolo[3,4-d]pyrimidin-6-amine]	15.7	-0.3765	1.195	18.8	-0.3276	1.274						23	-0.3619	1.366	23.2
CCCNc1nc(Nc2ccccc2)nc2c1cnn2-c1ccccc1 [Compound 7b, N4-Propyl-N6,1-diphenyl-1H-pyrazolo[3,4-d]pyrimidine-4,6-diamine]	67.4	-0.4700	1.829	31.5	-0.4549	1.498	moderate								
CCCNC(=S)NNc1nc(Nc2ccccc2)nc2c1cnn2-c1ccccc1 [Compound 13b, 2–(1-Phenyl-6-(phenylamino)-1H-pyrazolo[3,4-d]pyrimidin-4-yl)-N-propyl hydrazine-1-carbothioamide]	15.4	-0.3921	1.186	36.4	-0.3703	1.562									
c1ccc(Nc2nc(Nc3ccccc3)c3cnn(-c4ccccc4)c3n2)cc1 [Compound 8, N4,N6,1-Triphenyl-1H-pyrazolo[3,4-d]pyrimidine-4,6-diamine]	16.8	-0.3605	1.224	24.2	-0.4231	1.383						26	-0.3385	1.415	26
